Measured values as given in patent US8276663B2, “Methods for reducing biological load in subterranean formations” (Halliburton Energy Services Inc., priority 2010, dated 2012).

What was measured:
Type in all cases: physicochemical
[1] = Compatibility of HPG-based fluid (HYBOR H) and TTPC, FIG. 2
Description: Not shown in FIG. 2 is the starting viscosity of each of the tested fluids, which was as follows: 160.2 for the control, 172.9 for the fluid containing 125 ppm TTPC, 185.5 for the fluid containing 250 ppm TTPC, and 188.7 for the fluid containing 375 pp, TTPC.

[2] = Compatibility of CMHPG-based fluid (pHaser Frac) and TTPC, FIG. 6
Description: The starting viscosity of each of the tested fluids, was as follows: 719.1 for the control, 1182.63 for the fluid containing 30 ppm TTPC, 1067.5 for the fluid containing 60 ppm TTPC, and 1015.8 for the fluid containing 125 pp, TTPC.

[3] = Compatibility of guar-based fluid (DELTA 140) and TTPC, FIG. 4
Description: The starting viscosity of each of the tested fluids, was as follows: 824.2 for the control, 263.7 for the fluid containing 125 ppm TTPC, 567.3 for the fluid containing 250 ppm TTPC, and 721.6 for the fluid containing 375 pp, TTPC.

[4] = Compatibility of guar-based fluid (DELTA 200) and TTPC, FIG. 5
Description: The starting viscosity of each of the tested fluids, was as follows: 77.0 for the control, 251.9 for the fluid containing 125 ppm TTPC, 59.7 for the fluid containing 250 ppm TTPC, and 96.8 for the fluid containing 375 pp, TTPC.

[5] = Compatibility of guar-based fluid (HYBOR G) and TTPC, FIG. 3
Description: The starting viscosity of each of the tested fluids, was as follows: 138.1 for the control, 141.3 for the fluid containing 125 ppm TTPC, 125.7 for the fluid containing 250 ppm TTPC, and 128.8 for the fluid containing 375 pp, TTPC.

[6] = Compatibility of CMHPG fluid (SIROCCO) and TTPC, FIG. 1
Description: First, a treatment fluid containing 35 pptg (pounds per thousand gallons) carboxymethyl hydroxypropyl guar (CMHPG) fluid (SIROCCO, commercially available from Halliburton Energy Services, Inc. of Duncan, Okla.) with a pH of approximately 10.1 at 250° F. was tested and found to be compatible with TTPC up to about 250 ppm, as shown in FIG. 1. Not shown in […] is the starting viscosity of each of the tested fluids, which was as follows: 117.1 for the control, 140.1 for the fluid containing 125 ppm TTPC, 116.2 for the fluid containing 250 ppm TTPC, and 147.4 for the fluid containing 375 pp, TTPC.

CCCCCCCCCCCCCC[P+](CCCC)(CCCC)CCCC.[Cl-] [TTPC, tri-n-butyl tetradecyl phosphonium chloride]
TTPC concentration up to which fluid is compatible ([1]; 1 gptg GasPerm 1000, 4% KCl, 225° F.): up to 375 ppm
starting viscosity of fluid ([1]; 125 ppm TTPC): 172.9
starting viscosity of fluid ([1]; 250 ppm TTPC): 185.5
starting viscosity of fluid ([1]; 375 pp, TTPC): 188.7
TTPC concentration up to which fluid is compatible ([2]; 2 gptg tetramethylammonium chloride, 1.1 gptg pH buffer, 1.4 gptg CL-37, 225° F.): up to 125 ppm
starting viscosity of fluid ([2]; 30 ppm TTPC): 1182.63
starting viscosity of fluid ([2]; 60 ppm TTPC): 1067.5
starting viscosity of fluid ([2]; 125 pp, TTPC): 1015.8
TTPC concentration up to which fluid is compatible ([3]; DELTA 140, 2 gptg tetramethylammonium chloride, 3 gptg BC-140, 140° F.): up to 375 ppm
starting viscosity of fluid ([3]; DELTA 140, 125 ppm TTPC): 263.7
starting viscosity of fluid ([3]; DELTA 140, 250 ppm TTPC): 567.3
starting viscosity of fluid ([3]; DELTA 140, 375 pp, TTPC): 721.6
TTPC concentration up to which fluid is compatible ([4]; DELTA 200, 2 gptg Clayfix II, 2.5 gptg BC-200 UC, 204° F.): up to 375 ppm
starting viscosity of fluid ([4]; DELTA 200, 125 ppm TTPC): 251.9
starting viscosity of fluid ([4]; DELTA 200, 250 ppm TTPC): 59.7
starting viscosity of fluid ([4]; DELTA 200, 375 pp, TTPC): 96.8
TTPC concentration up to which fluid is compatible ([5]; 1 gptg GasPerm 1000, 5 pptg sodium thiosulfate, 225° F.): up to 375 ppm
starting viscosity of fluid ([5]; 125 ppm TTPC): 141.3
starting viscosity of fluid ([5]; 250 ppm TTPC): 125.7
starting viscosity of fluid ([5]; 375 pp, TTPC): 128.8
starting viscosity of fluid ([6]; 125 ppm TTPC): 140.1
starting viscosity of fluid ([6]; 250 ppm TTPC): 116.2
starting viscosity of fluid ([6]; 375 pp, TTPC): 147.4
TTPC concentration up to which fluid is compatible ([6]; pH approximately 10.1, 250° F.): up to 250 ppm
